From patent US20110118262A1, “Pyrrolidinyl and Piperidinyl Compounds Useful as NHE-1 Inhibitiors” (BOEHRINGER INGELHEIM INTERNATIONAL GMBH, priority 2008, published 2011)

Molecular target: T1, NHE-1 (Homo sapiens, UniProt P19634)
T1 construct: endogenous in cells; host or cells: HT-29
Assay: Evaluation of NHE-1 Inhibition (pHi) in HT-29 cells
Type: cell-based
Details: BCECF dye, 50% inhibition of the intracellular pH recovery, read-out: NHE1 HT29 pHi IC50
Description: Evaluation of NHE-1 Inhibition (pHi)
HT-29 cells resuspended in DMEM supplemented with 10% FBS, 1% NEAA, and 1% Penn-Strep are seeded at 10,000 cells/well in collagen coated 384 well plates which are then incubated for 24 hours at 37° C. The next day, the medium is removed and the cells are dye (Invitrogen's BCECF) loaded for 30 minutes at 37° C., washed three times with an acid loading buffer (10 mM NH4Cl, 1.8 mM CaCl2, 90 mM Choline Cl, 5 mM Glucose, 15 mM Hepes, 5 mM KCl, 1 mM MgCl2, adjusted to pH 7.5 with KOH) and further incubated at RT for 30 minutes.
At the end of the incubation, the buffer is removed and 5 uL of fresh acid loading buffer is added to each well to prevent the dessication of the cells. The plate is placed in a Hamamatsu FDSS6000 instrument and candidate compounds are added to the cells.

T1 sequence (P19634 whole entry): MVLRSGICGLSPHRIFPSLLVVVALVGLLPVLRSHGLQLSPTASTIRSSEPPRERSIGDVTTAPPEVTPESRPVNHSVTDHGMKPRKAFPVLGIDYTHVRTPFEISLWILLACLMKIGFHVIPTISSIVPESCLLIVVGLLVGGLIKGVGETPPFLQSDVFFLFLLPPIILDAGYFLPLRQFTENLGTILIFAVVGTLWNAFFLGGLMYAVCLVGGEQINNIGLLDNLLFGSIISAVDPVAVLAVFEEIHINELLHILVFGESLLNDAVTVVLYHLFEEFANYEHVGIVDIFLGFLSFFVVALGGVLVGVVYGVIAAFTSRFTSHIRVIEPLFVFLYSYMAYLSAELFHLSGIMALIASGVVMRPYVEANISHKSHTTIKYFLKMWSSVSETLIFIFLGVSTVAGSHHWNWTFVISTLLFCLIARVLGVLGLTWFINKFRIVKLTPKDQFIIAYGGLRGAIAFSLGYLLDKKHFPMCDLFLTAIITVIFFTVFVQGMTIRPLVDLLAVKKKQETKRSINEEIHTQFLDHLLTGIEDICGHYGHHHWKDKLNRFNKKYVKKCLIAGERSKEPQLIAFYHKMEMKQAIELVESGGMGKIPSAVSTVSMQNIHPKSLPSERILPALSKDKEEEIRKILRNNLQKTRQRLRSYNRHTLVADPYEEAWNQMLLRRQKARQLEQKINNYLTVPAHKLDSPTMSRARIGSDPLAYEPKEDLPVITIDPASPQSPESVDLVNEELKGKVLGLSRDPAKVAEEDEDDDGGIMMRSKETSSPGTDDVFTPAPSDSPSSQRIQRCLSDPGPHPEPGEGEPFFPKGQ

SMILES	IC50 [nM]
N#Cc1ccc(CC(N)C(=O)N2CCC(c3ccc(C(=O)NC(=N)N)cc3C(F)(F)F)CC2)cc1 (centres unmarked) [N-(4-{1-[2-Amino-3-(4-cyano-phenyl)-propionyl]-piperidin-4-yl}-3-trifluoromethyl-benzoyl)-guanidine]	58
N=C(N)NC(=O)c1ccc(C2CCN(C(=O)c3cncc(-c4ccc(F)cc4)c3)CC2)c(C(F)(F)F)c1 [N-(4-{1-[5-(4-Fluoro-phenyl)-pyridine-3-carbonyl]-piperidin-4-yl}-3-trifluoromethyl-benzoyl)-guanidine]	185
COc1cccc(-c2ccc(C(=O)N3CCC(c4ccc(C(=O)NC(=N)N)cc4C(F)(F)F)CC3)cn2)c1 [N-(4-{1-[6-(3-Methoxy-phenyl)-pyridine-3-carbonyl]-piperidin-4-yl}-3-trifluoromethyl-benzoyl)-guanidine]	250
CS(=O)(=O)c1ccc(Oc2ccc(C(=O)N3CCC(c4ccc(C(=O)NC(=N)N)cc4C(F)(F)F)CC3)cn2)cc1 [N-(4-{1-[6-(4-Methanesulfonyl-phenoxy)-pyridine-3-carbonyl]-piperidin-4-yl}-3-trifluoromethyl-benzoyl)-guanidine]	54
COc1cc(C2CCN(C(C)=O)CC2)c(C(F)(F)F)cc1C(=O)NC(=N)N [N-[4-(1-Acetyl-piperidin-4-yl)-2-methoxy-5-trifluoromethyl-benzoyl]-guanidine]	14
CC(=O)N1CCC(c2cc(C)c(C(=O)NC(=N)N)cc2C(F)(F)F)CC1 [N-[4-(1-Acetyl-piperidin-4-yl)-2-methyl-5-trifluoromethyl-benzoyl]-guanidine]	9
CC(=O)N1CCC(c2ccc(C(=O)NC(=N)N)cc2S(C)(=O)=O)CC1 [N-[4-(1-Acetyl-piperidin-4-yl)-3-methanesulfonyl-benzoyl]-guanidine]	18
CC(=O)N1CCC(c2ccc(C(=O)NC(=N)N)cc2C(F)(F)F)CC1 [N-[4-(1-Acetyl-piperidin-4-yl)-3-trifluoromethyl-benzoyl]-guanidine]	9
CC(=O)N1CCC(c2cc(C)c(C(=O)NC(=N)N)cc2S(C)(=O)=O)CC1 [N-[4-(1-Acetyl-piperidin-4-yl)-5-methanesulfonyl-2-methyl-benzoyl]-guanidine]	12
N=C(N)NC(=O)c1ccc(C2CCN(C(=O)c3ccccc3)CC2)c(C(F)(F)F)c1 [N-[4-(1-Benzoyl-piperidin-4-yl)-3-trifluoromethyl-benzoyl]-guanidine]	45
CCCC(=O)N1CCC(c2ccc(C(=O)NC(=N)N)cc2C(F)(F)F)CC1 [N-[4-(1-Butyryl-piperidin-4-yl)-3-trifluoromethyl-benzoyl]-guanidine]	30
N=C(N)NC(=O)c1ccc(C2CCN(C(=O)C3CCCC3)CC2)c(C(F)(F)F)c1 [N-[4-(1-Cyclopentanecarbonyl-piperidin-4-yl)-3-trifluoromethyl-benzoyl]-guanidine]	77
N=C(N)NC(=O)c1ccc(C2CCN(C(=O)C3CC3)CC2)c(C(F)(F)F)c1 [N-[4-(1-Cyclopropanecarbonyl-piperidin-4-yl)-3-trifluoromethyl-benzoyl]-guanidine]	16
CC(C)C(=O)N1CCC(c2ccc(C(=O)NC(=N)N)cc2C(F)(F)F)CC1 [N-[4-(1-Isobutyryl-piperidin-4-yl)-3-trifluoromethyl-benzoyl]-guanidine]	25
CCC(=O)N1CCC(c2ccc(C(=O)NC(=N)N)cc2C(F)(F)F)CC1 [N-[4-(1-Propionyl-piperidin-4-yl)-3-trifluoromethyl-benzoyl]-guanidine]	12
COCC(=O)N1CCC(c2cc(OC)c(C(=O)NC(=N)N)cc2C(F)(F)F)CC1 [N-{2-Methoxy-4-[1-(2-methoxy-acetyl)-piperidin-4-yl]-5-trifluoromethyl-benzoyl}-guanidine]	9
COc1cc(C2CCN(C(=O)c3ccc4c(c3)CCC(=O)N4)CC2)c(C(F)(F)F)cc1C(=O)NC(=N)N [N-{2-Methoxy-4-[1-(2-oxo-1,2,3,4-tetrahydro-quinoline-6-carbonyl)-piperidin-4-yl]-5-trifluoromethyl-benzoyl}-guanidine]	4
COc1cc(C2CCN(C(=O)c3ccn[nH]3)CC2)c(C(F)(F)F)cc1C(=O)NC(=N)N [N-{2-Methoxy-4-[1-(2H-pyrazole-3-carbonyl)-piperidin-4-yl]-5-trifluoromethyl-benzoyl}-guanidine]	6
COc1cc(C2CCN(C(=O)c3ccccn3)CC2)c(C(F)(F)F)cc1C(=O)NC(=N)N [N-{2-Methoxy-4-[1-(pyridine-2-carbonyl)-piperidin-4-yl]-5-trifluoromethyl-benzoyl}-guanidine]	43

SMILES	IC50 [nM]
Cc1cc(C2CCN(C(=O)c3ccc4c(c3)CCC(=O)N4)CC2)c(C(F)(F)F)cc1C(=O)NC(=N)N [N-{2-Methyl-4-[1-(2-oxo-1,2,3,4-tetrahydro-quinoline-6-carbonyl)-piperidin-4-yl]-5-trifluoromethyl-benzoyl}-guanidine]	63
Cc1ccc(C(=O)N2CCC(c3cc(C)c(C(=O)NC(=N)N)cc3C(F)(F)F)CC2)cn1 [N-{2-Methyl-4-[1-(6-methyl-pyridine-3-carbonyl)-piperidin-4-yl]-trifluoromethyl-benzoyl}-guanidine]	82
Cc1cc(C2CCN(C(=O)c3ccc(=O)[nH]c3)CC2)c(C(F)(F)F)cc1C(=O)NC(=N)N [N-{2-Methyl-4-[1-(6-oxo-1,6-dihydro-pyridine-3-carbonyl)-piperidin-4-yl]-5-trifluoromethyl-benzoyl}-guanidine]	30
Cc1cc(C2CCN(C(=O)c3ncco3)CC2)c(C(F)(F)F)cc1C(=O)NC(=N)N [N-{2-Methyl-4-[1-(oxazole-2-carbonyl)-piperidin-4-yl]-5-trifluoromethyl-benzoyl}-guanidine]	12
Cc1cc(C2CCN(C(=O)c3cccnc3)CC2)c(C(F)(F)F)cc1C(=O)NC(=N)N [N-{2-Methyl-4-[1-(pyridine-3-carbonyl)-piperidin-4-yl]-5-trifluoromethyl-benzoyl}-guanidine]	30
Cc1cc(C2CCN(C(=O)c3ccncc3)CC2)c(C(F)(F)F)cc1C(=O)NC(=N)N [N-{2-Methyl-4-[1-(pyridine-4-carbonyl)-piperidin-4-yl]-5-trifluoromethyl-benzoyl}-guanidine]	7
N=C(N)NC(=O)c1ccc(C2CCN(C(=O)c3cccc(C(F)(F)F)c3)CC2)c(C(F)(F)F)c1 [N-{3-Trifluoromethyl-4-[1-(3-trifluoromethyl-benzoyl)-piperidin-4-yl]-benzoyl}-guanidine]	250
N=C(N)NC(=O)c1ccc(C2CCN(C(=O)c3ccc(C(F)(F)F)cc3)CC2)c(C(F)(F)F)c1 [N-{3-Triuoromethyl-4-[1-(4-trifluoromethyl-benzoyl)-piperidin-4-yl]-benzoyl}-guanidine]	337
COCC(=O)N1CCC(c2ccc(C(=O)NC(=N)N)cc2S(C)(=O)=O)CC1 [N-{3-methanesulfonyl-4-[1-(2-methoxy-acetyl)-piperidin-4-yl]-benzoyl}-guanidine]	24
CS(=O)(=O)c1cc(C(=O)NC(=N)N)ccc1C1CCN(C(=O)c2cccc(C(F)(F)F)c2)CC1 [N-{3-methanesulfonyl-4-[1-(3-trifluoromethyl-benzoyl)-piperidin-4-yl]-benzoyl}-guanidine]	54
CCC(=O)N1CCC(c2ccc(C(=O)NC(=N)N)cc2S(C)(=O)=O)CC1 [N-{3-methanesulfonyl-4-[1-propionyl-piperidin-4-yl]-benzoyl}-guanidine]	21
Cc1cc(C(=O)N2CCC(c3ccc(C(=O)NC(=N)N)cc3C(F)(F)F)CC2)nn1C [N-{4-[1-(1,5-Dimethyl-1H-pyrazole-3-carbonyl)-piperidin-4-yl]-3-trifluoromethyl-benzoyl}-guanidine]	20
N=C(N)NC(=O)c1ccc(C2CCN(C(=O)C3(N)CCC3)CC2)c(C(F)(F)F)c1 [N-{4-[1-(1-Amino-cyclobutanecarbonyl)-piperidin-4-yl]-3-trifluoromethyl-benzoyl}-guanidine]	31
N=C(N)NC(=O)c1ccc(C2CCN(C(=O)C3(N)CCCCC3)CC2)c(C(F)(F)F)c1 [N-{4-[1-(1-Amino-cyclohexanecarbonyl)-piperidin-4-yl]-3-trifluoromethyl-benzoyl}-guanidine]	33
N=C(N)NC(=O)c1ccc(C2CCN(C(=O)C3(N)CCCC3)CC2)c(C(F)(F)F)c1 [N-{4-[1-(1-Amino-cyclopentanecarbonyl)-piperidin-4-yl]-3-trifluoromethyl-benzoyl}-guanidine]	2
N=C(N)NC(=O)c1ccc(C2CCN(C(=O)C3(N)CCc4ccccc43)CC2)c(C(F)(F)F)c1 (centres unmarked) [N-{4-[1-(1-Amino-indane-1-carbonyl)-piperidin-4-yl]-3-trifluoromethyl-benzoyl}-guanidine]	18
Cn1ccnc1C(=O)N1CCC(c2ccc(C(=O)NC(=N)N)cc2C(F)(F)F)CC1 [N-{4-[1-(1-Methyl-1H-imidazole-2-carbonyl)-piperidin-4-yl]-3-trifluoromethyl-benzoyl}-guanidine]	15
Cn1cccc1C(=O)N1CCC(c2ccc(C(=O)NC(=N)N)cc2C(F)(F)F)CC1 [N-{4-[1-(1-Methyl-1H-pyrrole-2-carbonyl)-piperidin-4-yl]-3-trifluoromethyl-benzoyl}-guanidine]	79
CN1CCCC(C(=O)N2CCC(c3ccc(C(=O)NC(=N)N)cc3C(F)(F)F)CC2)C1 (centres unmarked) [N-{4-[1-(1-Methyl-piperidine-3-carbonyl)-piperidin-4-yl]-3-trifluoromethyl-benzoyl}-guanidine]	10
